Key:
Conditions in all cases: binder
[1] = target: T1, AurA (Homo sapiens, UniProt O14965)
T1 sequence (O14965 1-403): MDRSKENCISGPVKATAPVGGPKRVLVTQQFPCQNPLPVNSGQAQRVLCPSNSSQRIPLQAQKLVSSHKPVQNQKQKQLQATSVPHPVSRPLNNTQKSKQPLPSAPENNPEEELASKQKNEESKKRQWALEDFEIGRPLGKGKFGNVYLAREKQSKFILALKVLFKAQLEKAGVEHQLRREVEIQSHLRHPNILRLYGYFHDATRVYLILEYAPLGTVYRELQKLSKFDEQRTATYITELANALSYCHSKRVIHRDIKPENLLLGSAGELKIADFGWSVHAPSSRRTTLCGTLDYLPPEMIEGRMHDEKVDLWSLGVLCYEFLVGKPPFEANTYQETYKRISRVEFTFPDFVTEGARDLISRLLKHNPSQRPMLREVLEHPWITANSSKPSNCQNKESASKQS

[2] = target: T2, MST2 (Homo sapiens, UniProt Q13188)
T2 sequence (Q13188 1-491): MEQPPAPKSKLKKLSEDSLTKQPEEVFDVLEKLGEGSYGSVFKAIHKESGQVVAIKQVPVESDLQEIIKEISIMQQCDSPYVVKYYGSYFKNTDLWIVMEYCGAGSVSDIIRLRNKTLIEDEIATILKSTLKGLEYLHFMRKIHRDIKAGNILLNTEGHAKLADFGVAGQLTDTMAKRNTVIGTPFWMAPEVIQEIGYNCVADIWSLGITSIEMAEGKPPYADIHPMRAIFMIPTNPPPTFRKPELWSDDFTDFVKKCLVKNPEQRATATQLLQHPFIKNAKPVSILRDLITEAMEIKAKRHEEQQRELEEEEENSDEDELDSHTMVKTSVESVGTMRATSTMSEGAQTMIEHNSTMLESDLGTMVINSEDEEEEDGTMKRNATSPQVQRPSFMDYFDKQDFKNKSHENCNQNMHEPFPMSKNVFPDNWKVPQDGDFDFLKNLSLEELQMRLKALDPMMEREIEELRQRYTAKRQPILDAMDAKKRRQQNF

[3] = target: CK2a1 (Homo sapiens, UniProt P68400)
Chain of CK2a1 (P68400 whole entry): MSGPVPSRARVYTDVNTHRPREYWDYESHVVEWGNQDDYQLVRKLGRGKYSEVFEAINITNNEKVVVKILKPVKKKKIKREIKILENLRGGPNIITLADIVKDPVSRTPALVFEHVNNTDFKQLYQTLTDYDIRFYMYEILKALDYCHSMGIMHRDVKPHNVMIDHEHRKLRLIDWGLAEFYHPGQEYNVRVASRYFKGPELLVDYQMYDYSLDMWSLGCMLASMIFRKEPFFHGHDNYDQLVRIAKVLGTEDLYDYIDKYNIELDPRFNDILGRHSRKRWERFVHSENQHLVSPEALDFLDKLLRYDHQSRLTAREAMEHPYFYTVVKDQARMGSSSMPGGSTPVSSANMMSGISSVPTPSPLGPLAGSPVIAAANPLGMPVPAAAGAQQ

[4] = target: T3, MST1 (Homo sapiens, UniProt Q13043)
T3 sequence (Q13043 1-487): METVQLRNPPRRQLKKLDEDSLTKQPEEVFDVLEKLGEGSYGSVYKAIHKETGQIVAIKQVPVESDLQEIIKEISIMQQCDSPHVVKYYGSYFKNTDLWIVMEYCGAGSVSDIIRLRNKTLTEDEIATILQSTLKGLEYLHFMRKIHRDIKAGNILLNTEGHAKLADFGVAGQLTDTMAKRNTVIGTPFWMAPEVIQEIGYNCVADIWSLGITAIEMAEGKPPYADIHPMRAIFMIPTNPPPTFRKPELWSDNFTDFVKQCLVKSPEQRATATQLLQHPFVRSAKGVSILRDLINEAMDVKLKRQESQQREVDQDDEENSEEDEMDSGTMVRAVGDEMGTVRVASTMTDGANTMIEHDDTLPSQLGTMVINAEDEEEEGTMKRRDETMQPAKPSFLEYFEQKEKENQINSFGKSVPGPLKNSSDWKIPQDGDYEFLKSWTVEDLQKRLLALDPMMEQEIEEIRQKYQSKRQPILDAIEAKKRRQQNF

[5] = target: p38a (Homo sapiens, UniProt Q16539)
Chain of p38a (Q16539 whole entry): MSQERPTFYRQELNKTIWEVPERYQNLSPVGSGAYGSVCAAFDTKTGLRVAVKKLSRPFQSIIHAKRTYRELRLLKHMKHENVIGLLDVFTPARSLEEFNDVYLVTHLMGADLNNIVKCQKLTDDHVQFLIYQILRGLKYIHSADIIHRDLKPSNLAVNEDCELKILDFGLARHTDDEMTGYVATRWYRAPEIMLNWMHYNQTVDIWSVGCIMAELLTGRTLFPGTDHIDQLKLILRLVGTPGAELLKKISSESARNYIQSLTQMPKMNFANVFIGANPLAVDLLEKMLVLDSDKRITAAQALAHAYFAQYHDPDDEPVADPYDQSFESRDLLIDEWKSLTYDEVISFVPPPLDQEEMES

[6] = target: T4, NEK1 (Homo sapiens, UniProt Q96PY6)
T4 sequence (Q96PY6 1-1258): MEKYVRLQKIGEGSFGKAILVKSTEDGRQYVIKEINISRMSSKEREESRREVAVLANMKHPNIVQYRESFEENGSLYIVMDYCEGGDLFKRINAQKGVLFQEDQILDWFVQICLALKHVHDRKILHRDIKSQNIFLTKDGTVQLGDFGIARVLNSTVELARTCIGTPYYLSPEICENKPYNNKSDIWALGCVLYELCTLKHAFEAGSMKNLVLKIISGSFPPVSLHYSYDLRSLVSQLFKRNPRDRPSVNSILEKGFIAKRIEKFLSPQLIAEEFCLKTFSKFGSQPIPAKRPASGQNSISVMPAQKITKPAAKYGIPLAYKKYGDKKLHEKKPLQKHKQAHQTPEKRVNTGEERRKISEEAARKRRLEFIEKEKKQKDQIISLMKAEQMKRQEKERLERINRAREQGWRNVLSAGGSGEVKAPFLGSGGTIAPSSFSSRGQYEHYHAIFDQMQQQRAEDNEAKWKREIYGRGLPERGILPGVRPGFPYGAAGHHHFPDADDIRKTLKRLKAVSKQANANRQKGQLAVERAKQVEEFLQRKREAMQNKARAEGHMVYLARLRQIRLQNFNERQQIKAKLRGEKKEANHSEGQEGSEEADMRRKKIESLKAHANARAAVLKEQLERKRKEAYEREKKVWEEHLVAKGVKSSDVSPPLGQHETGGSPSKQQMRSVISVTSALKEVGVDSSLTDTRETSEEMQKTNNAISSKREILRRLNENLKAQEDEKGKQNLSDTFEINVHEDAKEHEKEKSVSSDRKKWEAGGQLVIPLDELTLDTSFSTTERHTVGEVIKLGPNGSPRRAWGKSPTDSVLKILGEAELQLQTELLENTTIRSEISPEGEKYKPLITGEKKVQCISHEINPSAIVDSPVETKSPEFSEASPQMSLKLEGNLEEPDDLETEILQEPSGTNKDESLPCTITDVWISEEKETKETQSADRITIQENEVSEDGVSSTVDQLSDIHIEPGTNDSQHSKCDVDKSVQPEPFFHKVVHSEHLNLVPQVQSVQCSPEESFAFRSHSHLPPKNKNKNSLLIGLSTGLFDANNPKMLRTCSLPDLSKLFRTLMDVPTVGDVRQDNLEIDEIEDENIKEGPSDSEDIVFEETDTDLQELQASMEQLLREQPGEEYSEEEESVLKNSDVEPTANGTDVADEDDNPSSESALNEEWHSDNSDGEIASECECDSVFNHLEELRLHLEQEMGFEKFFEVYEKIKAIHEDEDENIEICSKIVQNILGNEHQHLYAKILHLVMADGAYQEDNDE

CNc1ncc2cc(-c3ccc(-c4cccc(C)n4)cc3Cl)c(=O)n(CCCCN)c2n1 [compound 20, MRLW5]
ΔTm MRLW5 (20) [1]: 11.8 °C | ΔTm MRLW5 (20) [2]: 7.9 °C | ΔTm MRLW5 (20) [3]: -0.2 °C | ΔTm MRLW5 (20) [4]: 5.6 °C | ΔTm MRLW5 (20) [5]: 1.0 °C | ΔTm MRLW5 (20) [6]: -1.9 °C

CNc1ncc2cc(-c3ccc(-c4cccc(C)n4)cc3Cl)c(=O)n(CCC3CCNCC3)c2n1 [compound 22, 6-(2-Chloro-4-(6-methylpyridin-2-yl)phenyl)-2-(methylamino)-8-(2-(piperidin-4-yl)ethyl)pyrido[2,3-d]pyrimidin-7(8H)-one]
ΔTm 22 [1]: 11.4 °C | ΔTm 22 [2]: 8.0 °C | ΔTm 22 [3]: -0.6 °C | ΔTm 22 [4]: 6.0 °C | ΔTm 22 [5]: 0.7 °C | ΔTm 22 [6]: -2.0 °C

CNc1ncc2cc(-c3ccc(-c4cccc(C)n4)cc3Cl)c(=O)n(C[C@H]3CC[C@H](N)CC3)c2n1 [compound 23, 23]
ΔTm 23 [1]: 13.1 °C | ΔTm 23 [2]: 10.8 °C | ΔTm 23 [3]: -0.4 °C | ΔTm 23 [4]: 7.9 °C | ΔTm 23 [5]: 6.7 °C | ΔTm 23 [6]: -2.7 °C

Cc1cccc(-c2ccc(-c3cc4cnc(NC(CO)CO)nc4n(CCCCN)c3=O)c(Cl)c2)n1 [compound 24, 8-(4-Aminobutyl)-6-(2-chloro-4-(6-methylpyridin-2-yl)phenyl)-2-((1,3-dihydroxypropan-2-yl)amino)pyrido[2,3-d]pyrimidin-7(8H)-one]
ΔTm MR24 (24) [1]: -1.7 °C | ΔTm MR24 (24) [2]: 4.9 °C | ΔTm MR24 (24) [3]: 0.0 °C | ΔTm MR24 (24) [4]: -0.6 °C | ΔTm MR24 (24) [5]: 2.8 °C | ΔTm MR24 (24) [6]: 0.0 °C

Cc1cccc(-c2ccc(-c3cc4cnc(NCCCc5ccc(N)cc5)nc4n(CCCCN)c3=O)c(Cl)c2)n1 [compound 25, 8-(4-Aminobutyl)-2-((3-(4-aminophenyl)propyl)amino)-6-(2-chloro-4-(6-methylpyridin-2-yl)phenyl)pyrido[2,3-d]pyrimidin-7(8H)-one]
ΔTm 25 [1]: 1.8 °C | ΔTm 25 [2]: 9.4 °C | ΔTm 25 [3]: -0.4 °C | ΔTm 25 [4]: -1.4 °C | ΔTm 25 [5]: 6.1 °C | ΔTm 25 [6]: -1.2 °C

Cc1cccc(-c2ccc(-c3cc4cnc(NCCCN5CCOCC5)nc4n(CCCCN)c3=O)c(Cl)c2)n1 [compound 26, MR26]
ΔTm MR26 (26) [1]: -0.9 °C | ΔTm MR26 (26) [2]: 7.7 °C | ΔTm MR26 (26) [3]: 0.6 °C | ΔTm MR26 (26) [4]: -0.5 °C | ΔTm MR26 (26) [5]: 4.0 °C | ΔTm MR26 (26) [6]: 0.1 °C
